Test results published in the NIST ThermoML archive (doi:10.1021/je0601513).

Experiment: molar heat capacity at constant pressure; xn = mol fraction of the nth substance listed
Details: 101 kPa, Liquid, Small sample (50 mg) DSC

C[S+](C)[O-] [dimethyl sulfoxide] + CCCO
molar heat capacity at constant pressure [J/K/mol]
Details | 288.15 K | 298.15 K | 308.15 K
x1 = 0.0514 | 138.1 | 143.6 | 149.7
x1 = 0.1127 | 137.3 | 142.3 | 147.9
x1 = 0.2114 | 136.2 | 140.3 | 145.2
x1 = 0.3163 | 135.5 | 139.1 | 143
x1 = 0.418 | 135.3 | 138.6 | 141.4
x1 = 0.5029 | 135.7 | 138.6 | 140.9
x1 = 0.6216 | 136.7 | 139.7 | 141.2
x1 = 0.7068 | 138.1 | 141.1 | 142.4
x1 = 0.7975 | 140 | 143.5 | 144.7
x1 = 0.8537 | 141.7 | 145.4 | 146.8
x1 = 0.8994 | 143.1 | 147.4 | 148.7
x1 = 0.9429 | 144.6 | 149.4 | 151
